# Measured values taken from patent publication US4816447A, “Anti-viral guanine compounds” (priority 1984, dated 1989).
# Read-outs that look alike come from different tables or passages of the source.
# Experiments:
# [1] = system: human cytomegalovirus, strain AD169; assay: Plaque inhibition, cytomegalovirus on MRC5 cells (Table V); assay type: cell-based, human cytomegalovirus; MRC5 (human diploid lung) cells
# [2] = system: HSV-1 wild type Strain 17; assay: Drug sensitivity of HSV-1 wild type Strain 17; settings: for EC50: Human alphaherpesvirus 1, read-out: ED50
# [3] = system: HSV-2 TS6
# [4] = system: HSV-2; assay: Therapeutic efficacy against vaginal HSV-2 infection of mice (Table VII); assay type: in vivo, HSV-2; mice; settings: for Survivors/Total: 0.55 μmoles oral gavage twice daily; for therapeutic effectiveness, treatment initiated up to 72 hours after infection: vaginal HSV-2
# Experimental: d. HSV-2 vaginal infection in mice is progressive from local acute infection of the genital area to limb paralysis and eventual death. This is a consistent, reproducible model, but is more virulent and progressive than the human genital disease. Drug efficacy is determined ultimately by extension of animal survival time, and also by the limitation of progression of disease from acute local through paralysis to death. Animals are challenged using in excess of 10 lethal equivalent doses of HSV-2. This model was used to evaluate dosing by oral gavage.
# [5] = system: Herpes simplex virus type I (HSV-1), strain Schooler; assay: Treatment of Herpes simplex virus infection in mice, repeat experiment (Table III); assay type: in vivo, HSV-1; ICR/Ha mice; settings: for Percent Survival: at 15 days
# Experimental: Twenty gram ICR/Ha mice were injected intraperitoneally (ip) with 0.5 ml of a 10^-5 dilution of a stock preparation of Herpes simplex virus type I (HSV-1), strain Schooler. This virus challenge infected each animal with approximately 100 LD50. […] The placebo group was composed of 45 animals. All compounds were solubilized in physiological saline, pH 11.5.
# [6] = system: Herpes simplex virus; assay: Plaque inhibition, Herpes simplex virus on MRC5 cells (Table V); assay type: cell-based, Herpes simplex virus; MRC5 (human diploid lung) cells
# [7] = system: Recombinant 6-26; assay: Drug sensitivity of HSV-1/HSV-2 intertypic Recombinant 6-26; settings: for EC50: read-out: ED50
# [8] = Comparative solubilities in pH 7.2 buffer at 25°; assay type: physicochemical; settings: for solubility: aqueous buffer, pH 7.2 phosphate buffer, 25°
# Experimental: Comparative Solubilities in pH 7.2 Buffer at 25°
# Solubilities were determined by suspending an excess amount of the compound in approximately 0.15 molar phosphate buffer (pH 7.2) and shaking overnight in a water bath at 25° to give a saturated solution. The concentration of the compound in the filtered solution was calculated on the basis of spectrophotometric measurements, i.e. comparison of the ultraviolet absorbance at the λmax for the saturated solution with the absorbance value observed for a known concentration of the compound.
# [9] = system: HSV-1; assay: Orofacial HSV-1 infection of hairless mice, oral or topical treatment (Table VI); assay type: in vivo, HSV-1; HRS mice; settings: for minimal effective dose: Human alphaherpesvirus 1, oral treatment, read-out: Min. Effective Dose; for minimal effective dose / Min. Effective Dose: orofacial infection; for Min. Effective Dose: topical treatment
# [10] = system: Varicella-Zoster virus, strain KMcC; assay: Plaque inhibition, Varicella Zoster virus on MRC5 cells (Table V); assay type: cell-based, Varicella-Zoster virus; MRC5 (human diploid lung) cells
# [11] = system: Recombinant 6-30; assay: Drug sensitivity of HSV-1/HSV-2 intertypic Recombinant 6-30; settings: for EC50: read-out: ED50
# [12] = system: Vaccinia; assay: microbe, parasite or virus in culture; assay type: cell-based, vaccinia; MRC5 (human diploid lung) cells; settings: for EC50: Orthopoxvirus vaccinia, MRC5, read-out: ED50, concentration required for 50% plaque inhibition
# [13] = system: Recombinant 6-34; assay: Drug sensitivity of HSV-1/HSV-2 intertypic Recombinant 6-34; settings: for EC50: read-out: ED50
# [14] = system: Recombinant 6-19; assay: Drug sensitivity of HSV-1/HSV-2 intertypic Recombinant 6-19; settings: for EC50: read-out: ED50
# [15] = system: Herpes simplex virus type 1; assay: Tube dilution assay, viral cytopathology of HSV-1 in rabbit kidney cell cultures; settings: Human alphaherpesvirus 1, in Oryctolagus cuniculus
# [16] = system: SV40; assay: Plaque inhibition, SV40 on CV-1 cells (Table V); assay type: cell-based, SV40; CV-1 (monkey) cells; settings: for EC50: Primates, read-out: ED50, concentration required for 50% plaque inhibition, SV40, CV-1
# Experimental: (§1) ED50 values developed for the cyclic monophosphate are compared on a weight basis to those established for the compound of Formula II and acyclovir.
# SV40 was assayed on CV-1 (monkey) cell cultures.
# [17] = system: Adeno Type 2; assay: Plaque inhibition, Adeno Type 2 on BSC cells (Table V); assay type: cell-based, Adeno Type 2; BSC (monkey) cells; settings: for EC50: Primates, read-out: ED50, concentration required for 50% plaque inhibition, Adeno Type 2, BSC
# Experimental: as §1
# Adeno Type 2 was assayed on BSC (monkey) cell cultures.
# [18] = system: HSV-1 383R1; assay type: cell-based, HSV-1 (383R1); NIH 3T3 mouse cells; settings: for EC50: Human alphaherpesvirus 1, in Mus musculus
# [19] = Human betaherpesvirus 5, AD169, MRC5, read-out: ED50, concentration required for 50% plaque inhibition
# [20] = treatment initiated 0 hrs after infection
# [21] = treatment initiated 24 hrs after infection
# [22] = treatment initiated 48 hrs after infection
# [23] = treatment initiated 72 hrs after infection
# [24] = MRC5, read-out: ED50, concentration required for 50% plaque inhibition
# [25] = Human alphaherpesvirus 3, MRC5, read-out: ED50, concentration required for 50% plaque inhibition
# [26] = read-out: Minimum Effective Concentration, Strain Schooler
# [27] = read-out: Antiviral Concentration, 50% plaque reduction, HSV-1 383R1, 3T3 TK^- /TK^+HSV cells
# [28] = read-out: Antiviral Concentration, 50% plaque reduction, HSV-1 383R1, 3T3 TK^- cells
smiles,measurement,setting,value
"Nc1nc2c(ncn2COCCO)c(=O)[nH]1 [Acycloguanosine, 9-(2-hydroxyethoxymethyl)guanine, reference compound]",EC50,[1]; [19],25 µg/mL
same,Sensitivity (S) or Resistance (R),[2]; HSV-1 wild type Strain 17,S
same,Sensitivity (S) or Resistance (R),[3]; HSV-2 TS6,S
same,sensitivity of HSV-2 Ts6,[3],sensitive
same,Survivors/Total,[4]; [20],1/10
same,Avg. Survival Days (confidence interval),[4]; [21],"12.1 (8.8, 17.3) Days"
same,Survivors/Total,[4]; [21],3/10
same,Avg. Survival Days (confidence interval),[4]; [22],"12.4 (8.2, 20.7) Days"
same,Survivors/Total,[4]; [22],5/10
same,Avg. Survival Days (confidence interval),[4]; [23],"9.0 (7.1, 11.3) Days"
same,Survivors/Total,[4]; [23],1/10
same,"therapeutic effectiveness, treatment initiated up to 72 hours after infection",[4],ineffective
same,Avg. Survival Time,[5]; 12.5 mg/kg/day s.c.,7.0 days
same,Percent Survival,[5]; 12.5 mg/kg/day s.c.,6%
same,Avg. Survival Time,[5]; 50 mg/kg/day s.c.,7.8 days
same,Percent Survival,[5]; 50 mg/kg/day s.c.,0%
same,Avg. Survival Time,[5]; 100 mg/kg/day s.c.,7.8 days
same,Percent Survival,[5]; 100 mg/kg/day s.c.,10%
same,EC50,[6]; [24],0.2 to 0.4 µg/mL
same,Sensitivity (S) or Resistance (R),[7]; Recombinant 6-26,S
same,solubility,[8],1300 to 1500 µg/mL
same,minimal effective dose,[9],12.5 mg/kg/day
same,Min. Effective Dose,[9],0.25-1.0%
same,EC50,[10]; [25],3 to 6 µg/mL
same,Sensitivity (S) or Resistance (R),[11]; Recombinant 6-30,S
same,EC50,[12],> 100 µg/mL
same,Sensitivity (S) or Resistance (R),[13]; Recombinant 6-34,R
same,Sensitivity (S) or Resistance (R),[14]; Recombinant 6-19,R
same,minimal effective concentration,[15]; [26],1 to 3 µg/mL
"Nc1nc2c(ncn2COC(CO)CO)c(=O)[nH]1 [Compound of Formula II, 9-(1,3-Dihydroxy-2-propoxymethyl)guanine]",more active than acyclovir,[1],approximately 10 fold
same,EC50,"[1]; Human betaherpesvirus 5, AD169, read-out: ED50, concentration required for 50% plaque inhibition, Cytomegalovirus, MRC5",0.8 µg/mL
same,EC50,[2],0.34 µg/mL
same,EC50,[16],> 100 µg/mL
same,sensitivity of HSV-2 Ts6,[3],resistant
same,Avg. Survival Time,[5]; 0.2 mg/kg/day s.c.,9.0 days
same,Percent Survival,[5]; 0.2 mg/kg/day s.c.,26%
same,Avg. Survival Time,[5]; 0.8 mg/kg/day s.c.,9.8 days
same,Percent Survival,[5]; 0.8 mg/kg/day s.c.,40%
same,Avg. Survival Time,[5]; 3.1 mg/kg/day s.c.,11.8 days
same,Percent Survival,[5]; 3.1 mg/kg/day s.c.,46%
same,Avg. Survival Time,[5]; 12.5 mg/kg/day s.c.,17.2 days
same,Percent Survival,[5]; 12.5 mg/kg/day s.c.,93%
same,Avg. Survival Time,[5]; 50 mg/kg/day s.c.,19.5 days
same,Percent Survival,[5]; 50 mg/kg/day s.c.,100%
same,calculated average relative potency to acycloguanosine (95% CI),[5]; combined results of both mouse experiments,287.0
same,EC50,[17],50 µg/mL
same,EC50,"[6]; read-out: ED50, concentration required for 50% plaque inhibition, Herpes simplex virus, MRC5",0.2 µg/mL
same,EC50,[7],0.05 µg/mL
same,solubility,[8],2800 µg/mL
same,EC50,"[10]; Human alphaherpesvirus 3, read-out: ED50, concentration required for 50% plaque inhibition, Varicella Zoster virus, MRC5",3 to 6 µg/mL
same,EC50,[18]; [27],0.06 µg/mL
same,EC50,[18]; [28],5 µg/mL
same,EC50,[11],0.08 µg/mL
same,EC50,[12],50 to 100 µg/mL
same,EC50,[13],0.07 µg/mL
same,EC50,[14],0.1 µg/mL
same,minimal effective concentration,"[15]; read-out: Minimum Effective Concentration, Strain McIntyre",3 µg/mL
same,minimal effective concentration,"[15]; read-out: Minimum Effective Concentration, Strain McKrae",1 to 3 µg/mL
same,minimal effective concentration,"[15]; read-out: Minimum Effective Concentration, Strain S",1 to 3 µg/mL
same,minimal effective concentration,[15]; [26],1 to 3 µg/mL
"Nc1nc2c(ncn2COC2COP(=O)(O)OC2)c(=O)[nH]1 (stereo not shown) [Cyclic Monophosphate, Potassium 9-(1,3-dihydroxy-2-propoxymethyl)guanine cyclic monophosphate]",more active than acyclovir,[1],approximately 10 fold
same,potency relative to compound of Formula II,[1],equipotent
same,EC50,[1]; [19],0.8 µg/mL
same,EC50,[2],0.9 µg/mL
same,EC50,[16],6 µg/mL
same,inhibition of DNA virus,[16]; SV40,inhibitory
same,sensitivity of HSV-2 Ts6,[3],sensitive
same,Survivors/Total,[4]; [20],8/10
same,Survivors/Total,[4]; [21],3/10
same,Survivors/Total,[4]; [22],2/10
same,Survivors/Total,[4]; [23],3/10
same,"therapeutic effectiveness, treatment initiated up to 72 hours after infection",[4],therapeutically effective
same,EC50,[17],3 µg/mL
same,inhibition of DNA virus,[17]; adenovirus,inhibitory
same,EC50,[6]; [24],3 to 6 µg/mL
same,EC50,[7],1.1 µg/mL
same,solubility compared to compound of Formula II and acyclovir,[8]; qualitative statement,readily soluble
same,minimal effective dose,[9],3.1 mg/kg/day
same,efficacy relative to acyclovir by minimum effective dose,[9]; orofacial,consistently more efficacious than acyclovir
same,Min. Effective Dose,[9],0.06%
same,in vitro effectiveness against Varicella Zoster virus relative to acyclovir or compound of Formula II,[10],substantially more effective
same,more active than either compound of Formula II or acyclovir,[10],approximately 10 fold
same,EC50,[10]; [25],0.4 to 0.8 µg/mL
same,antiviral activity on 3T3 TK^- /TK^+HSV vs 3T3 TK^- cells,[18]; HSV-1 (383R1),equivalent
same,EC50,[18]; [27],1 µg/mL
same,EC50,[18]; [28],1 µg/mL
same,EC50,[11],0.3 µg/mL
same,EC50,[12],6 to 12 µg/mL
same,inhibition of DNA virus,[12]; vaccinia,inhibitory
same,EC50,[13],6.3 µg/mL
same,EC50,[14],4.7 µg/mL
